Results on 17 compounds are retold here after patent US20060100431A1, “Biologically active compounds” (Amura Therapeutics Limited, priority 2002, published 2006).

pKi: −log10 of the molar value.

For one assay, the target named is T1, human cathepsin L (Homo sapiens, UniProt P07711).
T1 construct: purchased CN Biosciences
Description: Cathepsin L peptidase activity assay (Ki). Type of assay: biochemical. Particulars: read-out: Ki, inhibitors of cathepsin L. The method, then:
Unless otherwise stated, all general chemicals and biochemicals were purchased from either the Sigma Chemical Company, Poole, Dorset, U.K or from Fisher Scientific UK, Loughborough, Leicestershire, U.K. Absorbance assays were carried out in flat-bottomed 96-well plates (Spectra; Greiner Bio-One Ltd., Stonehouse, Gloucestershire, U.K.) using a SpectraMax PLUS384 plate reader (Molecular Devices, Crawley, U.K.). Fluorescence high throughput assays were carried out in either 384-well microtitre plates (Corning Costar 3705 plates, Fisher Scientific) or 96-well ‘U’ bottomed Microfluor W1 microtitre plates (Thermo Labsystems, Ashford, Middlesex, U.K.). Fluorescence assays were monitored using a SpectraMax Gemini fluorescence plate reader (Molecular Devices). For substrates employing either a 7-amino-4-methylcoumarin (AMC) or a 7-amino-4-trifluoromethylcoumarin (AFC) fluorophore, assays were monitored at an excitation wavelength of 365 nm and an emission wavelength of 450 nm and the fluorescence plate reader calibrated with AMC. For substrates employing a 3-amino-benzoyl (Abz) fluorophore, assays were monitored at an excitation wavelength of 310 nm and an emission wavelength of 445 nm; the fluorescence plate reader calibrated with 3-amino-benzamide (Fluka). Unless otherwise indicated, all the peptidase substrates were purchased from Bachem UK, St Helens, Merseyside, UK. Substrates utilizing fluorescence resonance energy transfer methodology (i.e. FRET-based substrates) were synthesized at Incenta Limited using published methods (Atherton & Sheppard, Solid Phase Peptide Synthesis, IRL Press, Oxford, U.K, 1989) and employed Abz (2-aminobenzoyl) as the fluorescence donor and 3-nitro-tyrosine [Tyr(NO2)] as the fluorescence quencher (Meldal, M. and Breddam, K., Anal. Biochem, 195, 141-147, 1991). Hydroxyethylpiperazine ethanesulfonate (HEPES), tris-hydroxylmethyl aminomethane (tris) base, bis-tris-propane and all the biological detergents (e.g. CHAPS, zwittergents, etc.) were purchased from CN Biosciences UK, Beeston, Nottinghamshire, U.K. Glycerol was purchased from Amersham Pharmacia Biotech, Little Chalfont, Buckinghamshire, U.K. Stock solutions of substrate or inhibitor were made up to 10 mM in 100% dimethylsulfoxide (DMSO) (Rathburns, Glasgow, U.K.) and diluted as appropriately required. In all cases the DMSO concentration in the assays was maintained at less than 1% (vol./vol.).
Assay protocols were based on literature precedent (Table 4; Barrett, A. J., Rawlings, N. D. and Woessner, J. F., 1998, Handbook of Proteolytic Enzymes, Academic Press, London and references therein) and modified as required to suit local assay protocols. Enzyme was added as required to initiate the reaction and the activity, as judged by the change in fluorescence upon conversion of substrate to product, was monitored over time. All assays were carried out at 25±1° C.
Bovine cathepsin S, human cathepsin L, human cathepsin H and human cathepsin B were obtained from CN Biosciences. Recombinant human cathepsin S, human cathepsin K and human cathepsin X were obtained from Dr. Boris Turk (Josef Stefan Institute, Ljubljana, Slovenia). Unless otherwise stated, all peptidase activity assays were carried out in 10 mM bis-tris-propane (BTP), pH 6.5 containing 1 mM EDTA, 5 mM 2-mercaptoethanol and 1 mM CaCl2. Human cathepsin H activity assays were carried out in 10 mM BTP pH 6.5, 142 mM NaCl2, 1 mM CaCl2, 1 mM EDTA, 1 mM DTT, 0.035 mM Zwittergent 3-16. Human cathepsin K assays were carried out in 100 mM sodium acetate; pH 5.5 containing 20 mM L-cysteine and 1 mM EDTA (Bossard, M. J., et. al., J. Biol. Chem., 21, 12517-12524, 1996). Human cathepsin X assays were carried out in 100 mM sodium acetate; pH 5.5 containing 20 mM L-cysteine; 0.05% (w/v) Brij 35 and 1 mM EDTA (Santamaria, I., et. al., J. Biol. Chem., 273, 16816-16823, 1998; Klemencic, J, et al., Eur. J. Biochem., 267, 5404-5412, 2000). […]

The target in another assay is Wild-type cruzipain (Trypanosoma cruzi, UniProt P25779). Description: Trypanosoma cruzi cruzipain peptidase activity assay (Ki). It counts as biochemical. Conditions: read-out: Ki, inhibitors of cruzain and cruzipains. The procedure, abridged:
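Native cruzipain from T. cruzi Dm28 epimastigotes, 2.5 nM, in 100 mM sodium phosphate pH 6.75 with 1 mM EDTA and 10 mM L-cysteine, 25 °C, DMSO <1%. Rates taken from continuous fluorogenic substrate read; Ki by regression assuming reversible pure-competitive inhibition.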

Sequence of Wild-type cruzipain (P25779 whole entry): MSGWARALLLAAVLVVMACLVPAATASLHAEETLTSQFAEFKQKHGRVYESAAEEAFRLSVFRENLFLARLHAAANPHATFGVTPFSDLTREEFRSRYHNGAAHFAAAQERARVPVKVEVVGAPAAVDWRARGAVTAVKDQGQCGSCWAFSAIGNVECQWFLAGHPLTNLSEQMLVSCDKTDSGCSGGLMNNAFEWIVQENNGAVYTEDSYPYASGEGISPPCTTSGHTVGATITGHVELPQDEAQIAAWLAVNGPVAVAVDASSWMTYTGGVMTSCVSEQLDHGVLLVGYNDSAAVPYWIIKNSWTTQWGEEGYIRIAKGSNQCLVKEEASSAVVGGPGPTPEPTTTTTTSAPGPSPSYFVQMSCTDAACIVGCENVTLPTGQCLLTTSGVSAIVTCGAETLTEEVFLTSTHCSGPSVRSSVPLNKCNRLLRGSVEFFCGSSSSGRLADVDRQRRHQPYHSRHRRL
T1 sequence (P07711 114-333): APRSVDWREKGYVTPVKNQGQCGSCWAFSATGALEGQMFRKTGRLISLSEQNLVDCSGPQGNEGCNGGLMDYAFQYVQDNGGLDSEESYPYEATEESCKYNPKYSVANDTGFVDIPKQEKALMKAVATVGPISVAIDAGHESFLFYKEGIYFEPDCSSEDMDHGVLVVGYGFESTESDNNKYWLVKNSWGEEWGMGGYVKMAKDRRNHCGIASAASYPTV

Consider `O=C1CN(C(=O)c2ccccc2)[C@@H]2CCN(C(=O)[C@H](CC3CCCCC3)NC(=O)N3CCOCC3)[C@H]12` [Example 280, (3aR,6aS)-Morpholine-4-carboxylic acid [(1S)-2-(4-benzoyl-6-oxo-hexahydro-pyrrolo[3,2-b]pyrrole-1-yl)-1-cyclohexylmethyl-2-oxo-ethyl]-amide], for which the pKi (usually −log10 of the Ki, conventionally taken in molar units) at human cathepsin L was over 5.30.

As for `O=C(N[C@@H](CC1CCCCC1)C(=O)N1CC[C@@H]2[C@H]1C(=O)CN2C(=O)c1ccc2ccccc2c1)c1ccsc1` [Example 256, (3aR,6aS)-Thiophene-3-carboxylic acid {(1S)-1-cyclohexylmethyl-2-[4-(naphthalene-2-carbonyl)-6-oxo-hexahydro-pyrrolo[3,2-b]pyrrol-1-yl]-2-oxo-ethyl}-amide], the pKi on Wild-type cruzipain and at human cathepsin L was over 5.30 throughout.

For the compound `CN(C)c1ccc(C(=O)N[C@@H](Cc2ccc(O)cc2)C(=O)N2CC[C@@H]3[C@H]2C(=O)CN3C(=O)c2cccs2)cc1` [Example 359, (3aR,6aS)-4-Dimethylamino-N-{(1S)-1-(4-hydroxy-benzyl)-2-oxo-2-[6-oxo-4-(thiophene-2-carbonyl)-hexahydro-pyrrolo[3,2-b]pyrrol-1-yl]-ethyl}-benzamide], the pKi on human cathepsin L was over 5.30.

Turning to `CN(C)c1ccc(C(=O)N[C@@H](Cc2ccc(O)cc2)C(=O)N2CC[C@@H]3[C@H]2C(=O)CN3C(=O)c2cccc(S(C)(=O)=O)c2)cc1` [Example 358, (3aR,6aS)-4-Dimethylamino-N-{(1S)-1-(4-hydroxy-benzyl)-2-[4-(3-methanesulfonyl-benzoyl)-6-oxo-hexahydro-pyrrolo[3,2-b]pyrrol-1-yl]-2-oxo-ethyl}-benzamide], the pKi at human cathepsin L is over 5.30.

As for `O=C(N[C@@H](CC1CCCCC1)C(=O)N1CC[C@@H]2[C@H]1C(=O)CN2C(=O)c1ccccc1)c1cccs1` [Example 287, (3aR,6aS)-Thiophene-2-carboxylic acid [(1S)-2-(4-benzoyl-6-oxo-hexahydro-pyrrolo[3,2-b]pyrrole-1-yl)-1-cyclohexylmethyl-2-oxo-ethyl]-amide], the pKi on Wild-type cruzipain and on human cathepsin L was over 5.30 each time.

With `Cc1ccccc1C(=O)N1CC(=O)[C@@H]2[C@H]1CCN2C(=O)[C@H](CC1CCCCC1)NC(=O)c1ccsc1` [Example 291, (3aR,6aS)-Thiophene-3-carboxylic acid {(1S)-1-cyclohexylmethyl-2-[4-(2-methyl-benzoyl)-6-oxo-hexahydro-pyrrolo[3,2-b]pyrrol-1-yl]-2-oxo-ethyl}-amide], on human cathepsin L, the pKi is over 5.30.

As to `CN(C)c1ccc(C(=O)N[C@@H](Cc2ccc(O)cc2)C(=O)N2CC[C@@H]3[C@H]2C(=O)CN3C(=O)c2ccccc2)cc1` [Example 356, (3aR,6aS)-N-[(1S)-2-(4-Benzoyl-6-oxo-hexahydro-pyrrolo[3,2-b]pyrrol-1-yl)-1-(4-hydroxy-benzyl)-2-oxo-ethyl)-4-dimethylamino-benzamide], the pKi at human cathepsin L was over 5.30.

With `Cc1ccc(C(=O)N2CC(=O)[C@@H]3[C@H]2CCN3C(=O)[C@H](CC2CCCCC2)NC(=O)c2ccsc2)cc1` [Example 293, (3aR,6aS)-Thiophene-3-carboxylic acid {(1S)-1-cyclohexylmethyl-2-[4-(4-methyl-benzoyl)-6-oxo-hexahydro-pyrrolo[3,2-b]pyrrol-1-yl]-2-oxo-ethyl}-amide], the pKi at human cathepsin L is over 5.30.

Consider `O=C(N[C@@H](CC1CCCCC1)C(=O)N1CC[C@@H]2[C@H]1C(=O)CN2C(=O)c1ccccc1)C(c1ccccc1)c1ccccc1` [Example 270, (3aR,6aS)-N-[(1S)-2-(4-Benzoyl-6-oxo-hexahydro-pyrrolo[3,2-b]pyrrol-1-yl)-1-cyclohexylmethyl-2-oxo-ethyl]-2,2-diphenyl-acetamide], for which the pKi at human cathepsin L is over 5.30.

Turning to `O=C(N[C@@H](CSCc1ccccc1)C(=O)N1CC[C@@H]2[C@H]1C(=O)CN2C(=O)c1ccccc1)c1cccs1` [Example 282, (3aR,6aS)-Thiophene-2-carboxylic acid [(1R)-2-(4-benzoyl-6-oxo-hexahydro-pyrrolo[3,2-b]pyrrole-1-yl)-1-benzylsulfanylmethyl-2-oxo-ethyl]-amide], the pKi at human cathepsin L was over 5.30.

As to `Nc1ccc(C(=O)N2CC(=O)[C@@H]3[C@H]2CCN3C(=O)[C@H](CSCc2ccccc2)NC(=O)c2ccsc2)cc1` [Example 268, (3aR,6aS)-Thiophene-3-carboxylic acid {(1R)-2-(4-(4-amino-benzoyl)-6-oxo-hexahydro-pyrrolo[3,2-b]pyrrol-1-yl]-1-benzylsulfanylmethyl-2-oxo-ethyl}-amide], at human cathepsin L, the pKi is over 5.30.

Turning to `O=C(N[C@@H](CSCc1ccccc1)C(=O)N1CC[C@@H]2[C@H]1C(=O)CN2C(=O)c1ccsc1)c1ccsc1` [Example 272, (3aR,6aS)-Thiophene-3-carboxylic acid {(1R)-1-benzylsulfanylmethyl-2-oxo-2-[6-oxo-4-(thiophene-3-carbonyl)-hexahydro-pyrrolo[3,2-b]pyrrol-1-yl]-ethyl}-amide], at human cathepsin L, the negative logarithm of the Ki (pKi) was over 5.30.

For `O=C(N[C@@H](CC1CCCCC1)C(=O)N1CC[C@@H]2[C@H]1C(=O)CN2C(=O)c1ccccc1)c1ccoc1` [Example 289, (3aR,6aS)-Furan-3-carboxylic acid [(1S)-2-(4-benzoyl-6-oxo-hexahydro-pyrrolo[3,2-b]pyrrole-1-yl)-1-cyclohexylmethyl-2-oxo-ethyl]-amide], the pKi at human cathepsin L is over 5.30.

`CC(C)C[C@H](NC(=O)c1ccc(N(C)C)cc1)C(=O)N1CC[C@@H]2[C@H]1C(=O)CN2C(=O)c1ccc(Cl)o1` [Example 244, (3aR,6aS)-N-{(1S)-1-[4-(5-Chloro-furan-2-carbonyl)-6-oxo-hexahydro-pyrrolo[3,2-b]pyrrole-1-carbonyl]-3-methyl-butyl}-4-dimethylamino-benzamide]: the pKi on Wild-type cruzipain and on human cathepsin L was over 5.30 in each case.

As to `O=C(N[C@@H](CC1CCCCC1)C(=O)N1CC[C@@H]2[C@H]1C(=O)CN2C(=O)c1ccccc1)c1ccco1` [Example 288, (3aR,6aS)-Furan-2-carboxylic acid [(1S)-2-(4-benzoyl-6-oxo-hexahydro-pyrrolo[3,2-b]pyrrole-1-yl)-1-cyclohexylmethyl-2-oxo-ethyl]-amide], the pKi at Wild-type cruzipain and on human cathepsin L was over 5.30 throughout.

With `O=C(N[C@@H](CSCc1ccccc1)C(=O)N1CC[C@@H]2[C@H]1C(=O)CN2C(=O)c1ccccc1)c1ccccc1` [Example 285, (3aR,6aS)-N-[(1R)-2-(4-Benzoyl-6-oxo-hexahydro-pyrrolo[3,2-b]pyrrol-1-yl)-1-benzylsulfanylmethyl-2-oxo-ethyl]-benzamide], the pKi on human cathepsin L is over 5.30.

For `CN(C)c1ccc(C(=O)N[C@@H](Cc2ccc(O)cc2)C(=O)N2CC[C@@H]3[C@H]2C(=O)CN3C(=O)c2ccccc2S(C)(=O)=O)cc1` [Example 357, (3aR,6aS)-4-Dimethylamino-N-{(1S)-1-(4-hydroxy-benzyl)-2-[4-(2-methanesulfonyl-benzoyl)-6-oxo-hexahydro-pyrrolo[3,2-b]pyrrole-1-yl]-2-oxo-ethyl}-benzamide], the pKi at human cathepsin L is over 5.30.
